The compounds below were run against CYP46A1 (Homo sapiens, UniProt Q9Y6A2) (assay: CYP46A1 Enzyme Assay 2 (testosterone substrate, HPLC-MS)). Details: read-out: IC50 (CYP46A1 inhibitory activity).
Type: biochemical
Protocol: Briefly, in a 384-well plate format, 10 μL per well of an enzyme-substrate mixture of CYP46A1 (5 μM final concentration) and Testosterone ([…] final concentration) were dispensed to wells containing test compound. For CYP46A1 titration, 5 μL per well of serially diluted CYP46A1 (concentrations including 10 μM, 5 μM, and 2.5 μM) and Testosterone (concentration of […]) were dispensed. For Testosterone titration, 5 μL per well of serially diluted Testosterone (concentrations including 10 μM, 5 μM, and 2.5 μM) and CYP46A1 (concentration of 5 μM) were dispensed. The plates were centrifuged at 1000 rpm for 30 seconds, and then sealed and incubated at 37° C. for 30 minutes. The plate was removed from the incubator, and then 10 μL per well of NADPH-generating system were dispensed to initiate the reaction. The plates were incubated at 37° C. for 15 minutes, added with 80 μL per well of 100% methanol consisting 1 ng/ml diclofenac as internal standard, and then transferred for HPLC-MS.

CYP46A1, sequence (Q9Y6A2 whole entry): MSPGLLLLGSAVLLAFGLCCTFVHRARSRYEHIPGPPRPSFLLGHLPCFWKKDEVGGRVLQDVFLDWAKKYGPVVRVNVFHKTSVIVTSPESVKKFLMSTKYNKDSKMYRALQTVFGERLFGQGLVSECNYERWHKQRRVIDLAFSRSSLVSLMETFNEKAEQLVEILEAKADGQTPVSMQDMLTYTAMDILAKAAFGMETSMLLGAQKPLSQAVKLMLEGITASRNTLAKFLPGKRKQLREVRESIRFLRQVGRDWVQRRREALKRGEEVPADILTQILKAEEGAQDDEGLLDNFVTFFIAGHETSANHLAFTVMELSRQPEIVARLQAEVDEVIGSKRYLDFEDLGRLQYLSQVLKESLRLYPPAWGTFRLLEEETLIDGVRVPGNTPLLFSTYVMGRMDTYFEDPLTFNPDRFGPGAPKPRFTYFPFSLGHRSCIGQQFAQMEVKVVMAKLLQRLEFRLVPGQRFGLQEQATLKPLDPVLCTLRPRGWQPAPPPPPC

IC50 [µM] | SMILES
< 0.1 | N#CC1(Cc2c(F)cc(F)cc2F)CCN(C(=O)c2cccnc2-c2ccncn2)CC1 [Compound A263, 1-(2-(pyrimidin-4-yl)nicotinoyl)-4-(2,4,6-trifluorobenzyl)piperidine-4-carbonitrile]
< 0.1 | N#CC1(Cc2c(F)cccc2F)CCN(C(=O)c2cccnc2-c2ccncc2)CC1 [Compound A274, 1-([2,4′-bipyridine]-3-carbonyl)-4-(2,6-difluorobenzyl)piperidine-4-carbonitrile]
< 0.1 | N#CC1(Cc2cc(F)ccc2F)CCN(C(=O)c2cccnc2-c2ccncn2)CC1 [Compound A261, 4-(2,5-difluorobenzyl)-1-(2-(pyrimidin-4-yl)nicotinoyl)piperidine-4-carbonitrile]
< 0.1 | N#CC1(Cc2ccccc2C(F)(F)F)CCN(C(=O)c2cccnc2-c2ccncc2)CC1 [Compound A275, 1-([2,4′-bipyridine]-3-carbonyl)-4-(2-(trifluoromethyl)benzyl)piperidine-4-carbonitrile]
< 0.1 | N#CC1(Cc2ccc(F)c(C(F)(F)F)c2)CCN(C(=O)c2cccnc2-c2ccncn2)CC1 [Compound A267, 4-(4-fluoro-3-(trifluoromethyl)benzyl)-1-(2-(pyrimidin-4-yl)nicotinoyl)piperidine-4-carbonitrile]
< 0.1 | CC(c1cc(F)cc(F)c1)C1(C#N)CCN(C(=O)c2cccnc2-c2ccncc2)CC1 (stereo in doubt) [Compound A260, (R)-1-([2,4′-bipyridine]-3-carbonyl)-4-(1-(3,5-difluorophenyl)ethyl)piperidine-4-carbonitrile]
< 0.1 | N#CC1(Cc2ccc(F)cc2)CCN(C(=O)c2cc(C3CC3)ccc2-c2ccncn2)CC1 [Compound A254, 1-(5-cyclopropyl-2-(pyrimidin-4-yl)benzoyl)-4-(4-fluorobenzyl)piperidine-4-carbonitrile]
< 0.1 | N#CC1(Cc2ccccc2C(F)(F)F)CCN(C(=O)c2cccnc2-c2ccncn2)CC1 [Compound A262, 1-(2-(pyrimidin-4-yl)nicotinoyl)-4-(2-(trifluoromethyl)benzyl)piperidine-4-carbonitrile]
< 0.1 | CC(c1c(F)cc(F)cc1F)C1(C#N)CCN(C(=O)c2cccnc2-c2ccncn2)CC1 (stereo in doubt) [Compound A271, (R)-1-(2-(pyrimidin-4-yl)nicotinoyl)-4-(1-(2,4,6-trifluorophenyl)ethyl)piperidine-4-carbonitrile]
< 0.1 | CC(c1cc(F)cc(F)c1)C1(C#N)CCN(C(=O)c2cccnc2-c2ccncn2)CC1 (stereo in doubt) [Compound A258, (R)-4-(1-(3,5-difluorophenyl)ethyl)-1-(2-(pyrimidin-4-yl)nicotinoyl)piperidine-4-carbonitrile]
< 0.1 | C[C@@H](c1ccc(C(F)(F)F)cc1F)C1(C#N)CCN(C(=O)c2cccnc2-c2ccncn2)CC1 [Compound A286, (R)-4-(1-(2-fluoro-4-(trifluoromethyl)phenyl)ethyl)-1-(2-(pyrimidin-4-yl)nicotinoyl)piperidine-4-carbonitrile]

More lines, now with the values behind:

SMILES | IC50 [µM]
C[C@H](c1ccc(F)cc1F)C1(C#N)CCN(C(=O)c2cccnc2-c2ccncn2)CC1 [Compound A241, (S)-4-(1-(2,4-difluorophenyl)ethyl)-1-(2-(pyrimidin-4-yl)nicotinoyl)piperidine-4-carbonitrile] | < 0.1
N#CC1(CCCCc2ccccc2)CCN(C(=O)c2cccnc2-c2ccncc2)CC1 [Compound A67, 1-([2,4′ bipyridine]-3-carbonyl)-4-(4-phenylbutyl)piperidine-4-carbonitrile] | < 0.1
N#CC1(Cc2cc(F)cc(F)c2)CCN(C(=O)c2cccnc2-c2ccncc2)CC1 [Compound A70, 1-([2,4′-bipyridine]-3-carbonyl)-4-(3,5-difluorobenzyl)piperidine-4-carbonitrile] | < 0.1
N#CC1(CCc2ccccc2)CCN(C(=O)c2cccnc2-c2ccncc2)CC1 [Compound A68, 1-([2,4′-bipyridine]-3-carbonyl)-4-phenethylpiperidine-4-carbonitrile] | 0.1 to 1
C[C@@H](c1c(F)cccc1F)C1(C#N)CCN(C(=O)c2cccnc2-c2ccncn2)CC1 [Compound A244, (R)-4-(1-(2,6-difluorophenyl)ethyl)-1-(2-(pyrimidin-4-yl)nicotinoyl)piperidine-4-carbonitrile] | < 0.1
C[C@@H](c1c(F)cccc1F)C1(C#N)CCN(C(=O)c2cccnc2-c2ccncc2)CC1 [Compound A246, (R)-1-([2,4′-bipyridine]-3-carbonyl)-4-(1-(2,6-difluorophenyl)ethyl)piperidine-4-carbonitrile] | < 0.1
CCc1ccc(CC2(C#N)CCN(C(=O)c3cccnc3-c3ccncn3)CC2)cc1 [Compound A208, 4-(4-ethylbenzyl)-1-(2-(pyrimidin-4-yl)nicotinoyl)piperidine-4-carbonitrile] | < 0.1
N#CC1(Cc2ccc(F)cc2)CCN(C(=O)c2cc(C(F)(F)F)ccc2-c2ccncn2)CC1 [Compound A227, 4-(4-fluorobenzyl)-1-(2-(pyrimidin-4-yl)-5-(trifluoromethyl)benzoyl)piperidine-4-carbonitrile] | < 0.1
N#CC1(CCCc2ccccc2)CCN(C(=O)c2cccnc2-c2ccncc2)CC1 [Compound A71, 1-{[2,4′-bipyridine]-3-carbonyl}-4-(3-phenylpropyl)piperidine-4-carbonitrile] | < 0.1
N#CC1(Cc2ccc(F)cc2C2CC2)CCN(C(=O)c2cccnc2-c2ccncn2)CC1 [Compound A230, 4-(2-cyclopropyl-4-fluorobenzyl)-1-(2-(pyrimidin-4-yl)nicotinoyl)piperidine-4-carbonitrile] | < 0.1
N#CC1(Cc2cc(F)cc(F)c2)CCN(C(=O)c2cccnc2-c2ccncn2)CC1 [Compound A213, 4-(3,5-difluorobenzyl)-1-(2-(pyrimidin-4-yl)nicotinoyl)piperidine-4-carbonitrile] | < 0.1
N#CC1(Cc2ccc(OC(F)(F)F)cc2)CCN(C(=O)c2cccnc2-c2ccncc2)CC1 [Compound A10, 1-([2,4′-bipyridine]-3-carbonyl)-4-(4-(trifluoromethoxy)benzyl)piperidine-4-carbonitrile] | < 0.1
N#CC1(Cc2ccc(F)cc2)CCN(C(=O)c2cccnc2-n2cncn2)CC1 [Compound A74, 1-(2-(1H-1,2,4-triazol-1-yl)nicotinoyl)-4-(4-fluorobenzyl)piperidine-4-carbonitrile] | > 1
N#CC1(Cc2cccc(F)c2F)CCN(C(=O)c2cccnc2-c2ccncn2)CC1 [Compound A209, 4-(2,3-difluorobenzyl)-1-(2-(pyrimidin-4-yl)nicotinoyl)piperidine-4-carbonitrile] | < 0.1
N#CC1(Cc2ccc(F)cc2F)CCN(C(=O)c2cccnc2-c2ccncn2)CC1 [Compound A51, 4-(2,4-difluorobenzyl)-1-(2-(pyrimidin-4-yl)nicotinoyl)piperidine-4-carbonitrile] | < 0.1
C[C@@H](c1ccc(F)cc1F)C1(C#N)CCN(C(=O)c2cccnc2-c2ccncc2)CC1 [Compound A238, (R)-1-([2,4′-bipyridine]-3-carbonyl)-4-(1-(2,4-difluorophenyl)ethyl)piperidine-4-carbonitrile] | < 0.1
N#C[C@@]1(Cc2ccc(F)cc2)C[C@H]2CC[C@@H](C1)N2C(=O)c1cccnc1-c1ccncn1 [Compound A252, (1R,3r,5S)-3-(4-fluorobenzyl)-8-(2-(pyrimidin-4-yl)nicotinoyl)-8-azabicyclo[3.2.1]octane-3-carbonitrile] | 0.1 to 1
N#CC1(Cc2ccc(C(F)(F)F)cc2)CCN(C(=O)c2cccnc2-c2ccncn2)CC1 [Compound A40, 1-(2-(pyrimidin-4-yl)nicotinoyl)-4-(4-(trifluoromethyl)benzyl)piperidine-4-carbonitrile] | < 0.1
N#C[C@@]1(Cc2ccc(F)cc2)CCN(C(=O)c2cccnc2-c2ccncn2)C1 [Compound A236, (S)-3-(4-fluorobenzyl)-1-(2-(pyrimidin-4-yl)nicotinoyl)pyrrolidine-3-carbonitrile] | > 1
N#CC1(Cc2ccc(C3CC3)cc2)CCN(C(=O)c2cccnc2-c2ccncn2)CC1 [Compound A212, 4-(4-cyclopropylbenzyl)-1-(2-(pyrimidin-4-yl)nicotinoyl)piperidine-4-carbonitrile] | < 0.1
N#CC1(Cc2ccc(F)cc2)CCN(C(=O)c2cccnc2-c2cncnc2)CC1 [Compound A66, 4-(4-fluorobenzyl)-1-(2-(pyrimidin-5-yl)nicotinoyl)piperidine-4-carbonitrile] | 0.1 to 1
CC[C@H](c1ccc(F)cc1)C1(C#N)CCN(C(=O)c2cccnc2-c2ccncn2)CC1 [Compound A215, (R)-4-(1-(4-fluorophenyl)propyl)-1-(2-(pyrimidin-4-yl)nicotinoyl)piperidine-4-carbonitrile] | < 0.1
C[C@@H](c1ccc(F)cc1)C1(C#N)CCN(C(=O)c2cccnc2-c2ccncn2)CC1 [Compound A44, (S)-4-(1-(4-fluorophenyl)ethyl)-1-(2-(pyrimidin-4-yl)nicotinoyl)piperidine-4-carbonitrile] | < 0.1
N#Cc1ccc(CC2(C#N)CCN(C(=O)c3cccnc3-c3ccncc3)CC2)cc1 [Compound A27, 1-([2,4′-bipyridine]-3-carbonyl)-4-(4-cyanobenzyl)piperidine-4-carbonitrile] | < 0.1
N#CC1(Cc2ccccc2)CCN(C(=O)c2cccnc2-c2ccncn2)CC1 [Compound A31, 4-benzyl-1-(2-(pyrimidin-4-yl)nicotinoyl)piperidine-4-carbonitrile] | < 0.1
